Where two headings read alike, the source gives them in different places. No end group written: not given here. *: point of attachment. Biotin = O=C1N[C@H]2[C@H](CS[C@H]2CCCCC(=O)*)N1; Ttds = NCCCOCCOCCOCCCNC(=O)CCC(=O)*
Tests used:
PR8 virus = type: cell-based, influenza A virus (H1N1 strain)
S. aureus [1] = type: cell-based, Staphylococcus aureus; conditions: S. aureus clinical strain MRSA 204; passaged at half the MIC over 15 days
S. aureus MRSA 326 = experiment: Neutropenic-mouse thigh model; conditions: neutropenic mice; bolus i.v. dose of 15 mg/kg 2 h after inoculation; sacrificed 4 hours post-infection
β-Gal [2] = target: T1, β-Gal (Escherichia coli, UniProt P00722); conditions: 10 μM peptide and 10 μM β-Gal; 20 mM sodium phosphate buffer, pH 6.8
Method: The co-aggregation of Tango 1 peptide, Tango 2 peptide and a tandem repeat of Tango 2 peptide with 13-Gal in vitro were monitored via light scattering from the apparent change in the optical density (OD) at 340 nm due to growth of aggregate particulates at room temperature. The interferor-β-Gal co-aggregation was initiated by adding equimolar molar concentration (10 μM) of either Tango 1 peptide, either Tango 2 peptide, either tandem repeat of Tango 2 peptide and β-Gal in 20 mM sodium phosphate buffer, pH 6.8 followed by gently stirring the sample at 50 rpm.
To characterise the size of the aggregates the hydrodynamic radius (RH) of β-Gal at time zero and after co-incubation with the either Tango 1 peptide, either Tango 2 peptide, either tandem repeat of Tango 2 peptide (Table 14) for 2 h was measured using dynamic light scattering (DLS), DynaPro DLS (Wyatt Technology Europe, Germany).

β-Gal [3] = target: T1, β-Gal; conditions: 1 μM peptide; immobilized β-Gal
Method: In this in vitro experiment the affinity of different interferor peptides was measured for binding to β-gal by means of surface plasmon resonance (SPR). SPR experiments were performed at 25° C. using a Biacore T100 equipped with CM5 sensor chip (GE Healthcare.). Coupling reagents (N-ethyl-N′-(3-dimethylaminopropyl)carbodiimide (EDC), N-hydroxysuccinimide (NHS) and ethanolamine-HCI) were purchased from GE Healthcare. BSA and β-gal were purchased from Sigma-Aldrich and Roche Diagnostics, respectively. […] The proteins BSA and β-Gal were immobilized respectively, in the reference and sample channels on a CM5 sensor chip by standard amine coupling chemistry at a flow of 10 μl min^−1. The carboxymethyl dextran surface was activated by the injection of a 1:1 ratio of EDC and NHS for 7 minutes. The proteins were diluted in 10 mM sodium-acetate buffer, pH 4.5 to a final concentration of 0.2 mg m1^−1 and injected in short pulses over the activated surface until the immobilization levels reached 4000 RU or 8000 RU, for BSA and β-Gal, respectively. The remaining reactive groups were blocked with 1 M ethanolamine, pH 8. After completion of coupling, the surface was regenerated with short pulses of 50 mM NaOH and 8 M urea to remove non-covalently attached proteins. […] The peptides, dissolved in the running buffer (10 mM sodium phosphate, pH 6.8, 150 mM NaCI, 3 mM EDTA and 0.015% Tween 20) at a concentration of 1 μM, were injected for 60 s at a flow rate of 30 μl min^−1 and then allowed to dissociate for 600 s. The injection was repeated on the same surface as well as on independently immobilized surfaces. The surface was regenerated between each cycle by 30 s pulses of i) 50 mM NaOH, and ii) 8 M urea, and was allowed to stabilize for 400 s before the next cycle.
The peptide dissolved in the running buffer was injected for 60 s at a flow-rate of 301.11min′ over the reference (BSA) and sample (β-Gal) surfaces in a range of concentrations (0-4 μM, with one internal replicate) and were then allowed to dissociate for 600 s. The concentration series were repeated on the same surface (three times) as well as on independently immobilized surfaces. The surface was regenerated between each cycle by 30 s pulses of i) 50 mM NaOH, and ii) 8 M urea, and was allowed to stabilize for 400 s before the next cycle.
The data were globally fitted to a three-state model, using the Biacore T100 software, assuming an initial encounter between the peptide in solution and the protein on the chip followed by a two-step rearrangement before an identical binding site becomes available at the growing β-sheet.

EGFR family = experiment: EGF-induced ERK1/2 phosphorylation in HeLa cells (cross reactivity of VEGFR2 peptides); type: cell-based, human; conditions: EGF 25 ng/ml
Method: As a next step, to test the specificity of the VEGFR2 peptides, we tested their cross reactivity towards the EGFR family. Therefore, HeLa cells were treated with peptide B8 and B12 and subsequently stimulated with EGF (25ng/ml).

[4] = tested on: human embryonic kidney cells (HEK293T cell line); conditions: 100 μg/ml; 24 hours incubation
Excerpt: Alamar blue assay allowed monitoring of the total percentage of cell growth recovery in time in the presence of peptides.

[5] = tested on: Human embryonic kidney (HEK293T) cells; conditions: 50 μg/ml (C30: 50 μg/ml or beyond)
human erythrocytes = type: cell-based
Excerpt: The detergent Tween was used as a positive control, causing 100% lysis of RBCs.

S. aureus [6] = tested on: S. aureus
Method: (§1) Bacteria were grown in a shaking incubator at 37° C. and 160rpm in 50 ml BHI , using individual colonies retrieved from a fresh overnight TSA-sheep blood plate. The cultures were grown to a density of approximately 1×10^8cells/ml and then diluted to 5×10^5 cells/ml in CAMHB (Mc Farland 0.5). Each well contained 100p.I (50p.I of peptide containing MHB plus 50 μl inoculum). The final cell density was 1×10^5 to 5×10^5/ml. After addition of the cell suspension, plates were incubated at 37° C. for 18 to 24 hours. The optical density at 590 nm (OD590) of each well was measured after 5 seconds of shaking the plate using Perkin Elmer spectrophotometer (1420 Multilabel Counter Vicotr 3). […] Each well, where no growth was observed, was also plated on TSA-sheep blood agar plates, incubated at 37° C. overnight and visually inspected.
(§2) A microbroth dilution method was used with twofold serial dilutions in CAMHB (according to EMEA guidelines) was used for screening of peptide activity, with concentrations ranging from 0.3 μg/mIto 200 μg/ml.

human EGFR2 = target: T2, human EGFR2 (Homo sapiens, UniProt P04626); experiment: EGF-induced ERK1/2 phosphorylation in HeLa cells (ELISA); type: cell-based; conditions: EGF 25 ng/ml
T2 construct: these cells endogenously express EGFR1 and EGFR2; endogenous in cells; host or cells: HeLa
Method: The EGFR2 peptides are designed to target the human EGFR2 receptor. Thus, for these assays, HeLa cells were initially used, as these cells endogenously express EGFR1 and EGFR2.
For EGFR2, a similar screen was performed as for VEGFR2. Instead of using the time-consuming Western Blot method, however, an ELISA protocol was used that can detect both phospho- and total ERK1/2.

β-Gal [7] = target: T1, β-Gal; conditions: for binding to β-Gal on blot: 250 nM biotinylated peptide, 1 h, complete BL21 cell lysate
Method: A 0.4 ml suspension of BL21 cells (OD600 nm ^˜1.2) expressing β-Gal (grown under induced conditions) was centrifuged at 5000 g for 10 min at room temperature. The supernatant was discarded and 0.8 ml of bacterial protein extraction reagent (B-PER, Thermo scientific) containing protease inhibitor was added to the bacterial pellet and vortex mixed for 30 s in order to lyse the cells. To 21 μl of the complete BL21 cell lysate 5 μl of 5× SDS sample loading buffer (Fermentas) was added and heated at 99° C. for 3 min. This mixture (26 μl per well) was loaded in a 10-well NuPage 4-12% Bis-Tris gel and the proteins were separated under denaturing conditions. The separated proteins were then transferred to a nitrocellulose membrane and blocked overnight with 1% BSA in phosphate buffer saline, 0.05% Tween 20, pH 7.4 (PBS-T) at 4° C. Each lane of the membrane was cut out and separately incubated with either rabbit anti-β-Gal antibody either biotinylated Tango 1, either biotinylated Tango 2, or the biotinylated off-target peptide or either a biotinylated Tango 2 mutant peptide.
This was followed by 3×10 min wash with PBS-T and finally rinsed in deionised water for 10 min. The membrane strip was exposed to chemiluminescence HRP substrate reagent (SuperSignal West Femto Maximum Sensitivity Substrate, Thermo Fisher Scientific) and target protein visualized using Bio-Rad ChemiDoc XRS imaging system.
A stock solution (10 μM) of each of the biotinylated peptides was prepared in 100% DMSO. The peptide stock was diluted (1/400) in 10 mM MES buffer, 100 mM Trehalose, 0.05% Tween 20, pH 5.5 to obtain a final concentration of the peptide of 25 nM. The freshly prepared peptide solution was immediately added to the membrane strip and gently agitated at room temperature. After 15 min the peptide solution was decanted and the membrane strip was washed 3×10 min with 10 mM MES buffer, 0.05% Tween 20, pH 5.5 and further processed as described herein before.

PSA = target: T3, PSA (Homo sapiens, UniProt P07288); experiment: PepBlot detection of PSA in human seminal plasma; type: binding; conditions: 10% seminal plasma; for detection of PSA compared with monoclonal antibody: 250 nM peptide
T3 construct: A sample of 10% seminal plasma was fractionated under non-reducing condition using denaturing gel electrophoresis; from tissue; host or cells: human seminal plasma
Method: Semen from a volunteer was collected and allowed to liquefy at room temperature. After 2 h the seminal fluid was centrifuged at 10,000×g for 15 min to separate the plasma from sperm cells. A sample of 10% seminal plasma was fractionated under non-reducing condition using denaturing gel electrophoresis then transferred to PVDF membrane and blocked using protocol described for serum electrophoresis. Lanes of membrane were agitated separately with 250 nM of peptide b^˜[…] (SEQ ID NO: 88) or peptide b^˜[…] (SEQ ID NO: 85) or 250 pM tandem repeat peptide b^˜[…] (SEQ ID NO: 89) formulated in 10 mM MES buffer pH 5.1, 100 mM trehalose, 0.05% Tween 20 and 2.5% DMSO at 25° C. for 1 h. The membranes were rinsed in 10 mM MES buffer pH 5.1, 0.05% tween 20 and stained with HRP-conjugated SRP and visualized with ECL system. In parallel WB detection of PSA in seminal plasma was carried out by incubating the membrane with (1:5000) rabbit monoclonal anti-PSA antibody (EP1588Yi Abcam) specific to the c-terminal peptide of PSA. This was followed by staining with goat polyclonal anti-rabbit antibody conjugated to HRP and visualised using ECL system.

T3 sequence (P07288 25-261): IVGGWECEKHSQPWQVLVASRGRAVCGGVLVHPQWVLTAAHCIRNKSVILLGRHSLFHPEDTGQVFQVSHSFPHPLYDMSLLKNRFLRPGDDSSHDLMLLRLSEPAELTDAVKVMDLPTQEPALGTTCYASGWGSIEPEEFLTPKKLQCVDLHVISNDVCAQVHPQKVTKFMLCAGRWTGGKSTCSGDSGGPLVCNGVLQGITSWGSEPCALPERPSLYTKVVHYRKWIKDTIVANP
T1 sequence (P00722 2-1024 with the stated changes limits assumed): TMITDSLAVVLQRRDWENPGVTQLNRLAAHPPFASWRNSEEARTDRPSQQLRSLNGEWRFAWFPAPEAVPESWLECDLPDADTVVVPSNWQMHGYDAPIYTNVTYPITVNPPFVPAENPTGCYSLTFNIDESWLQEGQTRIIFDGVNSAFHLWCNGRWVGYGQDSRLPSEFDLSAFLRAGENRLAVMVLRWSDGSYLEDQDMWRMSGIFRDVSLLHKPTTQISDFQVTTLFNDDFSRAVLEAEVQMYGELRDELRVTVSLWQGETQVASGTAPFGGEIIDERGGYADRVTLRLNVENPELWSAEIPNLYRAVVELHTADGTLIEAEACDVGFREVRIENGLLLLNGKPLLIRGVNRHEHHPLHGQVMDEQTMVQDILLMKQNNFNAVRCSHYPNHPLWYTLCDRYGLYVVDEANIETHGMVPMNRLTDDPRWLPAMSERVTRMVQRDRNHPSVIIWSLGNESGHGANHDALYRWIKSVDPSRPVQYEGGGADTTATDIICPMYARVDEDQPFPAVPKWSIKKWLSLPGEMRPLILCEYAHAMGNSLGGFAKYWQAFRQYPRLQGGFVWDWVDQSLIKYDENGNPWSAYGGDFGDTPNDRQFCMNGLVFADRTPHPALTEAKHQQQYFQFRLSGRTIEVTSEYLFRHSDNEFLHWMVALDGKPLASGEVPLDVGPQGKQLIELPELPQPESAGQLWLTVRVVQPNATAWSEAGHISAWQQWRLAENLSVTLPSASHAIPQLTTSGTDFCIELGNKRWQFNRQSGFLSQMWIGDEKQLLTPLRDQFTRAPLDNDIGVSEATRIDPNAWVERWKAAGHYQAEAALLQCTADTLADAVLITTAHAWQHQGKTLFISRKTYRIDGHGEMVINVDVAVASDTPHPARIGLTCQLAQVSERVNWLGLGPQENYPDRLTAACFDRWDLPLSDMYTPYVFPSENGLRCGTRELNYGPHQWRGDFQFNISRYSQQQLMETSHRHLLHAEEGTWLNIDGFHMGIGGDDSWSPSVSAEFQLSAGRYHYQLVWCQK
Method for B. cereus: as §1, §2

CC1(C)S[C@@H]2[C@H](NC(=O)[C@H](N)c3ccccc3)C(=O)N2[C@H]1C(=O)O [Ampicilin, reference compound]
maximal increase of the MIC (MRSA strain 326; 31 days, concentration in medium adjusted to MIC of previous day): up to 7 fold
MIC on the last day of the experiment (MRSA strain 326; day 31): 100 µg/mL

CCOC(=O)C1=C[C@@H](OC(CC)CC)[C@H](NC(C)=O)[C@@H](N)C1 [Tamiflu, reference compound]
virus replication (PR8 virus; positive control, 1 μM or 10 nM): did not completely inhibit viral replication in one setup

CO[C@H]1/C=C/O[C@@]2(C)Oc3c(C)c(O)c4c(O)c(c(/C=N/N5CCN(C)CC5)c(O)c4c3C2=O)NC(=O)/C(C)=C\C=C\[C@H](C)[C@H](O)[C@@H](C)[C@@H](O)[C@@H](C)[C@H](OC(C)=O)[C@@H]1C [rifampin, reference compound]
fold elevation of the MIC (S. aureus [1]): ≤ 512 fold

CN[C@H](CC(C)C)C(=O)N[C@H]1C(=O)N[C@@H](CC(N)=O)C(=O)N[C@H]2C(=O)N[C@H]3C(=O)N[C@H](C(=O)N[C@H](C(=O)O)c4cc(O)cc(O)c4-c4cc3ccc4O)[C@H](O)c3ccc(c(Cl)c3)Oc3cc2cc(c3O[C@@H]2O[C@H](CO)[C@@H](O)[C@H](O)[C@H]2O[C@H]2C[C@](C)(N)[C@H](O)[C@H](C)O2)Oc2ccc(cc2Cl)[C@H]1O [vancomycin, reference compound]
fold elevation of the MIC (S. aureus [1]): increased two-fold
reduction of expansion of initial inoculum (S. aureus MRSA 326): 8.7 Log10 CFU/ml

(His)6~RLAVVLQR [Tango 1 peptide]
co-aggregation kinetics with free β-Gal in solution (β-Gal [2]): faster co-aggregation kinetics
binding affinity with β-Gal observed in SPR (β-Gal [3]): weak binding affinity

(His)6~RVIIWSLGNRGSGSAPAARVIIWSLGNR [Tandem of Tango 2]
co-aggregation kinetics with free β-Gal in solution (β-Gal [2]): fast co-aggregation kinetics

DMISYAGMDPPDMISYAGMD [B12, VEGFR2 peptide B12]
ERK1/2 phosphorylation after EGF stimulation (EGFR family): do not inhibit ERK1/2 phosphorylation

O Z RGVSILNLRGSRGVSILNLR [interferor 4]
virus replication (PR8 virus): still reproducibly inhibit virus replication

O Z RLIQLIVSRGSRLIQLIVSR [interferor 1]
virus replication (PR8 virus): still reproducibly inhibit virus replication

O Z RTMAWTVVRGSRTMAWIVVR (RTMAWTVVRGSRTMAWTVVR) [interferor 3]
virus replication (PR8 virus): less strong

O Z RTTIMAAFRGSRTTIMAAFR [interferor 2]
virus replication (PR8 virus): less strong

RFFIALSRRGSRVQAYLYRR [Hit50]
recovery of HEK cells [4]: 90%
MIC values against Corynebacterium (Corynebacterium): 12.5 µg/mL
LDH release [5]: 5%
hemolytic activity (human erythrocytes): no significant hemolytic activity at clinically relevant concentrations
MIC values against B.cereus ATCC (B. cereus): >100 µg/mL
MIC (S. aureus [6]): 25 µg/mL
MIC in presence of 50% FBS (S. aureus [6]): 100 µg/mL
MIC values against MRSA 326 (S. aureus [6]): 50 µg/mL

RIISAVVGRPPRIISAVVGR [A12]
EGF signaling (phospho-ERK1/2) (human EGFR2): significantly and repeatedly reduced EGF signaling

RTGYLYISRPPRTGYLYISR [A11]
EGF signaling (phospho-ERK1/2) (human EGFR2): significantly and repeatedly reduced EGF signaling

RWGLLLALRPPRWGLLLALR [A5]
EGF signaling (phospho-ERK1/2) (human EGFR2): significantly and repeatedly reduced EGF signaling

RWVSMLLRRGSRWVSMLLRR [Hit1]
MIC values against Corynebacterium (Corynebacterium): 3 µg/mL
HD50 (concentration at which 50% of red blood cells are lysed) (human erythrocytes): 25 to 50 µg/mL
MIC values against B.cereus ATCC (B. cereus): 6 µg/mL
MIC (S. aureus [6]): 3 µg/mL
MIC in presence of 50% FBS (S. aureus [6]): 25 µg/mL
MIC values against MRSA 326 (S. aureus [6]): 6 µg/mL

b~DVIIWSLGNR~b [Complimentary charge]
specificity of binding to β-gal versus serum proteins (β-Gal [7]; competitive PepBlot, 7% clinical serum in adjacent lane, 25 nM, 15 min): does not cross react with proteins in the serum

b~RLAVVLQR [Tango 1]
binding to β-Gal on blot (β-Gal [7]): weaker binding

b~RPITVNPPFR [Off-Target]
binding to β-Gal on blot (β-Gal [7]): no interaction

b~RQWVLTAAR [PSA interferor peptide]
detection of PSA compared with monoclonal antibody (PSA): can detect PSA to comparable levels as the antibody

b~RQWVLTAARGSGSAPAARQWVLTAAR ({Biotin-Ttds}-APAARQWVLTAARGSGSAPAARQWVLTAAR) [tandem repeat PSA peptide]
detection of PSA (band signal) (PSA; 250 pM tandem repeat peptide): strong band signal

b~RVIIWSLGNR [Tango 2]
binding to β-Gal on blot (β-Gal [7]): strong affinity to the β-Gal

b~RVIPWSLGNR [Tango 2 Mut_2]
binding to β-Gal on blot (β-Gal [7]): still bind efficiently to β-Gal

b~RVPIWSLGNR [Tango 2 Mut_1]
binding to β-Gal on blot (β-Gal [7]): still bind efficiently to β-Gal

b~RWQVLVASD
detection of PSA compared with monoclonal antibody (PSA): can detect PSA to comparable levels as the antibody

Source: US20220033448A1, “METHODS FOR AGGREGATION OF PROTEINS” (priority 2011, published 2022)
